Experimental data from US6265445A, “Antiarrhythmic compounds” (priority 1997, dated 2001).
Structures can show the parent of a compound that is named as a salt. Where two headings read alike, the source gives them in different places.

Key:
[1] = tested on: arrhythmias following coronary artery occlusion in conscious rats; experiment: Occlusion arrhythmia following acute coronary artery ligation in conscious rats; type: in vivo, male rats; conditions: for Occurrence of arrhythmias: Brady / Occurrence of arrhythmias: Free (no arrhythmia was observed) / Occurrence of arrhythmias: Other / Occurrence of arrhythmias: VF / Occurrence of arrhythmias: VT: first 15 minutes; for Arrhythmia Score: score system from 0 to 6
Source text: The method used is essentially in agreement with the method of Lepran et al. [J. Pharmacol. Methods 9, pp. 219-230 (1983)].
During a previous operation, male rats weighing 340 to 360 g each were fitted with a loose surgical thread loop around the left descending coronary vessel, at about 2 mm from its origin. The ends of the loop thread were led out from the chest under the skin, then the surgical wound was closed. After complete recovery from this previous operation (7 to 8 days) acute myocardial ischaemia was induced by contracting the loose ligation in the conscious, freely moving animals. ECG was continuously registered by using bipolar chest electrodes before the ligation of the coronary artery and during the first 15 minutes of ischaemia. The ratio of survivals was determined and the developed arrhythmias were evaluated according to the Lambeth Convention [Walker et al.: Cardiovasc. Res. 22, 447-455 (1988)]. For evaluation of the arrhythmic episodes a score system was also employed by considering the severity of episodes on the basis of a score system from 0 to 6. Both d-sotalol and the substance of Example 15, respectively, were suspended in 1% methylcellulose and administered orally through a gastric sound at 1 hour before the compression of the coronary vessel. The control animals received a treatment with the same volume, i.e. 5 ml/kg of vehicle.

[2] = tested on: isolated right ventricular trabecule of dog heart; experiment: Extracellular electrophysiological measurements: impulse conduction time and effective refractory period; parameters: species or system mongrel dogs; conditions: for activation at 30 µM / activation at 10 µM: Canis lupus familiaris; for effect on effective refractory period (in words) / effect on impulse conduction (in words): concentrations of Table 1
Procedure: Right ventricular trabecules were prepared from the heart of mongrel dogs (weighing 5 to 10 kg each). The surviving heart pieces were placed into an organ bath (37° C.) containing modified Tyrode's nutrient medium and excited by point stimulation with a basal frequency of 1 Hz. Extracellular bipolar platinum electrodes were placed on the surface of the preparations, by means of which the propagation of the superficial potentials were registered; thus, the determination of the time of impulse conduction or the rate of impulse conduction, respectively, and the effective refractory period (ERP) became possible. During our experiments,the frequency of stimulation was temporarily varied from 0.5 Hz up to 3 Hz. The tested compounds were directly added to the organ bath after dilution of the stock solution according to the desired final concentration.

[3] = tested on: occlusion and reperfusion arrhythmias in anaesthetized dogs; experiment: Occlusion and reperfusion arrhythmias following acute coronary ligation in anaesthetized dogs; type: in vivo, mongrel dogs; conditions: 3 mg/kg i.v.
Procedure: The method used is essentially in agreement with the method of Vegh et al. [Basic Res. Cardiol. 82, 159-171 (1987)].
Mongrel dogs of both sexes weighing 10 to 20 kg each were anaesthetized by a mixture of chloralose (60 mg/kg) and urethane (200 mg/kg) and the animals were maintained on artificial respiration. After opening the chest, the ramus descendens anterior (LAD) branch of the left coronary artery of heart was prepared from the first main collateral branch and a loose loop from surgical thread was placed around it. During our experiments, the blood pressure of the animal was measured by using a cannule introduced to the left femoral artery and even the standard ECG parameters by using needle electrodes were continuously registered. The arrhythmias were induced by the occlusion for 25 minutes of a loop placed round the LAD. The survival after lethal arrhythmias and frequency of the arrhythmias were registered. The 28 dogs used in the experiments were divided into three groups. The compound of Example 15 was administered in a dose of 1 mg/kg to 8 animals; d-sotalol was given in a dose of 3 mg/kg to 10 animals by a single intravenous injection 10 minutes before compression of the coronary vessel. The control dogs (10 animals) received 5 ml of physiological saline solution in the same manner as the treated animals.
By using this method it can be stated whether the substance investigated would be effective for protection against arrhythmias following the ligation of the coronary artery.

[4] = treatment group; cited from earlier work
[5] = tested on: right ventricular papillary muscle of dogs; experiment: Intracellular microelectrode technique: action potential parameters, ventricular papillary muscle; parameters: species or system mongrel dogs; conditions: for Trecovery (recovery time constant of Vmax): Gy: kinetics of rapid restoration; for effect on duration of the action potential (in words) / effect on Vmax (in words): concentrations of Table 2; for effect on Vmax (in words): rapid recovery kinetics
Procedure: The method used is essentially in agreement with the method of Papp et al. [J. Cardiovascular Pharmacol. Ther. 1, 287-296 (1996)].
Right ventricular papillary muscle and Purkinje's fibres were prepared from the hearts of mongrel dogs (weighing 5 to 10 kg each). The preparations were placed into an organ bath (37° C.) containing modified Tyrode's nutrient medium. The preparations were excited by a basal frequency of 1 Hz. During the experiments, the frequency of stimulation was varied under broad limits by a computer-guided stimulator. The intracellular action potentials were registered by using glass capillary microelectrodes filled with 3 N potassium chloride solution (standard intracellular microelectrode techniques). The resting potential (RP), the amplitude of the action potential (APA) as well as the duration of the action potential (APD) were measured by using an IBM 386 compatible computer by means of an own-developed software. The compounds under test were directly added into the organ bath after dilution of the stock solutions according to the final concentrations desired. The effects of the compounds were observed after an incubation time of 30 to 40 minutes.

[6] = 10 μM, 1 Hz, read-out: Prolongation (%) of ERP
[7] = 10 μM, 1 Hz, read-out: Prolongation (%) of impulse conduction time
[8] = 10 μM, 3 Hz, read-out: Prolongation (%) of ERP
[9] = 10 μM, 3 Hz, read-out: Prolongation (%) of impulse conduction time

For `CC(C)NCC(O)c1ccc(NS(C)(=O)=O)cc1` (single isomer, unassigned) [d-Sotalol, d-N-[4-[1-hydroxy-2-(1-methylethylamino)ethyl]phenyl]methanesulfonamide hydrochloride], the “antiarrhythmic effect (in words)” value ([1]; oral administration) was “proved to be inactive”, the “Survival 15 minutes” value ([1]; p.o. 25 mg/kg) was 2/29 and the “Survival 16 hours” value ([1]; p.o. 25 mg/kg) was 2/29. For the same compound, the “Occurrence of arrhythmias: Brady” value ([1]; p.o. 25 mg/kg) was 2/29, the “Occurrence of arrhythmias: Free (no arrhythmia was observed)” value ([1]; p.o. 25 mg/kg) was 0/0 and the “Occurrence of arrhythmias: Other” value ([1]; p.o. 25 mg/kg) was 3/43. For the same compound, the “Occurrence of arrhythmias: VF” value ([1]; p.o. 25 mg/kg) was 7/100, the “Occurrence of arrhythmias: VT” value ([1]; p.o. 25 mg/kg) was 7/100 and the “Arrhythmia Score” value ([1]; p.o. 25 mg/kg) was 5.71 ± 0.18. For the same compound, the “Survival 15 minutes” value ([1]; p.o. 50 mg/kg) was 1/10, the “Survival 16 hours” value ([1]; p.o. 50 mg/kg) was 0/0 and the “Occurrence of arrhythmias: Brady” value ([1]; p.o. 50 mg/kg) was 1/10. The “Occurrence of arrhythmias: Free (no arrhythmia was observed)” value ([1]; p.o. 50 mg/kg) was 0/0, the “Occurrence of arrhythmias: Other” value ([1]; p.o. 50 mg/kg) was 4/40 and the “Occurrence of arrhythmias: VF” value ([1]; p.o. 50 mg/kg) was 1/100. For the same compound, the “Occurrence of arrhythmias: VT” value ([1]; p.o. 50 mg/kg) was 10/100, the “Arrhythmia Score” value ([1]; p.o. 50 mg/kg) was 5.90 ± 0.10 and the activation at 30 µM ([2]; 1 Hz, read-out: Prolongation (%) of ERP) was 12.4%. It also gave an activation at 30 µM ([2]; 1 Hz, read-out: Prolongation (%) of impulse conduction time) of -4.5 ± 5.1%, an activation at 30 µM ([2]; 3 Hz, read-out: Prolongation (%) of ERP) of 7.1% and an activation at 30 µM ([2]; 3 Hz, read-out: Prolongation (%) of impulse conduction time) of -3.7 ± 4.7%. The “effect on effective refractory period (in words)” value [2] was “showed a considerable effect only on the ERP”, the “Complete survival, animals” value [3] was 5/10 and the “Complete survival, percent” value [3] was 50%. The “ES (extrasystole)” value ([3]; occlusion) was 128 ± 14, the “VF (ventricular fibrillation), animals” value ([3]; occlusion) was 3/10 and the “VF (ventricular fibrillation), percent” value ([3]; occlusion) was 30%. The “VT (ventricular tachycardia), animals” value ([3]; occlusion) was 5/10, the “VT (ventricular tachycardia), percent” value ([3]; occlusion) was 50% and the “VF (ventricular fibrillation), animals” value ([3]; reperfusion) was 2/7. The “VF (ventricular fibrillation), percent” value ([3]; reperfusion) was 29% and the “mortality in clinical trials (in words)” value [4] was “increase in mortality ascribable to the proarrhythmic effect”.

`Cc1cccc(C)c1OC[C@@H](C)N(C)CCc1ccc(NS(C)(=O)=O)cc1.Cl` [Example 17, (R)-N-[4-[2-[N-Methyl-N-[2-(2,6-dimethylphenoxy)-1-methylethyl]amino]ethyl]phenyl]methanesulfonamide hydrochloride] gave an activation at 10 µM [2, 6] of 12.1%, an activation at 10 µM [2, 7] of 32.5% and an activation at 10 µM [2, 8] of 17.1%. The activation at 10 µM [2, 9] was 35.1%, the “effect on effective refractory period (in words)” value [2] was “simultaneous prolongation of the effective refractory period (ERP)” and the “effect on impulse conduction (in words)” value [2] was “significantly prolonged the time of impulse conduction in a frequency-dependent manner”. For the same compound, the “APA (amplitude of the action potential)” value ([5]; 5 μM) was 106 mV, the “APD50 (time of 50% repolarization)” value ([5]; 5 μM) was 203 ms and the “APD90 (time of 90% repolarization)” value ([5]; 5 μM) was 249 ms. For the same compound, the “RP (resting potential)” value ([5]; 5 μM) was -87 mV, the “Recovery Ampl” value ([5]; 5 μM) was 85.2 V/s and the “Recovery Ampl/Plateau” value ([5]; 5 μM) was 0.52. The “Recovery Plateau” value ([5]; 5 μM) was 173.7 V/s, the “Vmax (maximum rate of depolarization)” value ([5]; 5 μM) was 169 V/s and the “difference between the effects of Example 15 and its enantiomers (in words)” value ([5]; 5 μM) was “No essential difference could be observed”. For the same compound, the “Trecovery (recovery time constant of Vmax)” value (shortened to “Trecovery”) ([5]; 5 μM) was 390.4 ms, the “effect on duration of the action potential (in words)” value [5] was “simultaneous prolongation of duration of the action potential (APD)” and the “effect on Vmax (in words)” value [5] was “mexiletine-like inhibition of Vmax”.

Work on `Cc1cccc(C)c1OCC(C)NCCc1ccc(NS(C)(=O)=O)cc1.Cl` (stereo not shown) [Example 22, N-[4-[2-[N-[2-(2,6-Dimethylphenoxy)-1-methylethyl]amino]-ethyl]phenyl]methanesulfonamide hydrochloride] yielded an activation at 10 µM [2, 6] of 12.3%, an activation at 10 µM [2, 7] of 22.6% and an activation at 10 µM [2, 8] of 18.1%. For the same compound, the activation at 10 µM [2, 9] was 28.3%, the “APA (amplitude of the action potential)” value ([5]; 5 μM) was 100 mV and the “APD50 (time of 50% repolarization)” value ([5]; 5 μM) was 215 ms. For the same compound, the “APD90 (time of 90% repolarization)” value ([5]; 5 μM) was 260 ms, the “RP (resting potential)” value ([5]; 5 μM) was -80 mV and the “Recovery Ampl” value ([5]; 5 μM) was 136.3 V/s. For the same compound, the “Recovery Ampl/Plateau” value ([5]; 5 μM) was 0.58, the “Recovery Plateau” value ([5]; 5 μM) was 232.8 V/s and the “Vmax (maximum rate of depolarization)” value ([5]; 5 μM) was 159 V/s. For the same compound, the “Trecovery” value ([5]; 5 μM) was 337.8 ms, the “effect on duration of the action potential (in words)” value [5] was “simultaneous prolongation of duration of the action potential (APD)” and the “effect on Vmax (in words)” value [5] was “mexiletine-like inhibition of Vmax”.

With `Cc1cccc(C)c1OCC(C)N.Cl` (stereo not shown) [Mexiletine, 2-(2,6-dimethylphenoxy)-1-methylethylamine hydrochloride, reference compound] the activation at 10 µM ([2]; read-out: Prolongation (%) of ERP, 10 μM, 1 Hz) was -1.9 ± 1.7%, the activation at 10 µM ([2]; read-out: Prolongation (%) of ERP, 10 μM, 3 Hz) was 8.9% and the activation at 10 µM ([2]; read-out: Prolongation (%) of impulse conduction time, 10 μM, 1 Hz) was 3.9%. For the same compound, the activation at 10 µM ([2]; read-out: Prolongation (%) of impulse conduction time, 10 μM, 3 Hz) was 18.8%, the “effect on impulse conduction (in words)” value [2] was “exerted an effect mainly on impulse conduction” and the “APA (amplitude of the action potential)” value ([5]; 10 μM) was 115 mV. For the same compound, the “APD50 (time of 50% repolarization)” value ([5]; 10 μM) was 244 ms, the “APD90 (time of 90% repolarization)” value ([5]; 10 μM) was 270 ms and the “RP (resting potential)” value ([5]; 10 μM) was -92 mV. The “Recovery Ampl” value ([5]; 10 μM) was 84.0 V/s, the “Recovery Ampl/Plateau” value ([5]; 10 μM) was 0.45 and the “Recovery Plateau” value ([5]; 10 μM) was 186.5 V/s. The “Vmax (maximum rate of depolarization)” value ([5]; 10 μM) was 193 V/s and the “Trecovery” value ([5]; 10 μM) was 214.1 ms.
